Experiment [1] deals with Acyl-protein thioesterase 1 (Homo sapiens, UniProt O75608). Nature of the experiment: Enzymatic Protein Activity Assay. As for the experimental part:
(§1) The enzyme activities were determined by measuring the release of fluorescent 6,8-difluoro-4-methylumbelliferone (DiFMU) by the APT hydrolysis of DiFMU octanoate (DiFMUO) in a Tecan Infinite M200 microplate reader in a 96-well format.

For experiment [2], the target named is Acyl-protein thioesterase 2 (Homo sapiens, UniProt O95372). Nature of the experiment: Enzymatic Protein Activity Assay. As for the experimental part: as §1

In general, IC50 refers to the point on the concentration scale where inhibition reaches its midpoint.

Sequence of Acyl-protein thioesterase 2 (O95372 whole entry): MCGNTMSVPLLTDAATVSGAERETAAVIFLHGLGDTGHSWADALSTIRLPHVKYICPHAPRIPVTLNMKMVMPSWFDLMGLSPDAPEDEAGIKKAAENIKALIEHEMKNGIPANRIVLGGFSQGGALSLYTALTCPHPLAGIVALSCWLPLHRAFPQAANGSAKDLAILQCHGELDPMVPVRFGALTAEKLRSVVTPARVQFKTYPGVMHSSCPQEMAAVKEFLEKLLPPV
Sequence of Acyl-protein thioesterase 1 (O75608 whole entry): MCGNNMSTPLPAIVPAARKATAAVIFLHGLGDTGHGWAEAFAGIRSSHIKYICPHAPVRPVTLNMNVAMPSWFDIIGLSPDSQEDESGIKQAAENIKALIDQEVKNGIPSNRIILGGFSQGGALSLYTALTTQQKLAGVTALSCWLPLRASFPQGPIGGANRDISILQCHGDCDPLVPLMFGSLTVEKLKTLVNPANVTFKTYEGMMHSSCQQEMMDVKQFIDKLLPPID

Regarding `OB(O)c1ccc(Cl)c(Cl)c1` [3,4-Dichlorophenyl boronic acid], the IC50 in experiment [1] is 1.1 µM; in experiment [2] it was 0.138 µM.
As to `OB(O)c1ccccc1-c1ccccc1` [(2-phenylphenyl)boranediol], the 50% inhibitory concentration (IC50) in experiment [1] and in experiment [2] was above 50 µM each time.
Take `OB(O)c1ccc(-c2ccccc2)cc1` [(4-phenylphenyl)boranediol]: the results for the IC50 in experiment [1] and in experiment [2] were 16.9 µM and 3.55 µM, respectively.
Turning to `OB(c1ccccc1)c1cccc(COCc2cccc(B(O)c3ccccc3)c2)c1` [Phenylboronic acid, 7], the IC50 turned out to be 33.6 µM in experiment [1] and 41.5 µM in experiment [2].
`OB(O)c1cc(F)cc(F)c1` [Phenylboronic acid, 8]: the IC50 in experiment [1] was 0.51 µM; in experiment [2], 1.97 µM.
Taken in the same sequence, the figures for `OB(O)c1cccc(Cl)c1` [Phenylboronic acid, 10] were 1.4 µM and 0.418 µM.
With `OB(O)c1cc2ccccc2s1` [Phenylboronic acid, 11], the IC50 worked out at 2.3 µM in experiment [1] and 0.529 µM in experiment [2].
`NCCOB(c1ccccc1)c1ccc(COCc2ccc(B(OCCN)c3ccccc3)cc2)cc1` [Phenylboronic acid, 13]: the results for the half-maximal inhibitory concentration (IC50) in experiment [1] and in experiment [2] were 2.7 µM and 4.1 µM, respectively.
On the same counts, the results for `CN(C)CCOB(c1ccccc1)c1cccc(COCc2cccc(B(OCCN(C)C)c3ccccc3)c2)c1` [Phenylboronic acid, 14] are 3.2 µM and 1.8 µM.
On to `OB(O)c1cc(Oc2ccccc2)ccc1I` [Phenylboronic acid, 15], for which the IC50 in experiment [1] is 3.2 µM; in experiment [2] it was 0.238 µM.
For the molecule `COC(=O)c1cc(B(O)O)cc([N+](=O)[O-])c1` [Phenylboronic acid, 16], the figures for the IC50 in experiment [1] and in experiment [2] were 3.7 µM and 2.95 µM, respectively.
For `CC(=O)c1cccc(B(O)O)c1` [Phenylboronic acid, 17], the IC50 in experiment [1] came out at 3.9 µM; in experiment [2], 2.87 µM.
`OB(O)c1ccc(Cl)cc1` [Phenylboronic acid, 18]: the IC50 in experiment [1] is 4.6 µM; in experiment [2] it was 4.18 µM.
On the same counts, the results for `Cc1ccc(Br)c(B(O)O)c1` [Phenylboronic acid, 19] are 6.3 µM and 2.16 µM.
As to `OB(O)c1cc2ccccc2o1` [Phenylboronic acid, 21], the IC50 came to 13.5 µM in experiment [1] and 11.3 µM in experiment [2].
Consider `OB(O)c1ccccc1` [Phenylboronic acid, 22], for which the IC50 in experiment [1] stood at 14.7 µM; in experiment [2], 25.1 µM.
